# From ChEMBL document CHEMBL1201861, “Genomics of Drug Sensitity in Cancer screening data, Wellcome Trust Sanger Institute”
# Tests used:
# Test in all cases: cells
# PC-14 = type: functional, cell-based, Homo sapiens; conditions: Homo sapiens, PC-14;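 further: cell viability assay measuring inhibition of PC-14 cell growth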
# Description: SANGER: Inhibition of human PC-14 cell growth in a cell viability assay.
# 647-V = type: functional, cell-based, Homo sapiens; conditions: Homo sapiens, 647-V;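 further: growth inhibition of 647-V cells, read out with a cell viability assay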
# Description: SANGER: Inhibition of human 647-V cell growth in a cell viability assay.
# LU-99A = type: functional, cell-based, Homo sapiens; conditions: Homo sapiens, LU-99A;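 further: growth inhibition of LU-99A cells, read out with a cell viability assay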
# Description: SANGER: Inhibition of human LU-99A cell growth in a cell viability assay.
# SCC-9 = type: functional, cell-based, Homo sapiens; conditions: Homo sapiens, SCC-9;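 further: Read-out is a cell viability assay, with values giving inhibition of cell growth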
# Description: SANGER: Inhibition of human SCC-9 cell growth in a cell viability assay.
# S-117 = type: functional, cell-based, Homo sapiens; conditions: Homo sapiens, S-117
# Description: SANGER: Inhibition of human S-117 cell growth in a cell viability assay.
# COR-L23 = type: functional, cell-based, Homo sapiens; conditions: Homo sapiens, COR-L23;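 further: cell viability assay measuring how strongly compounds suppress growth of COR-L23 cells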
# Description: SANGER: Inhibition of human COR-L23 cell growth in a cell viability assay.
# LB2241-RCC = type: functional, cell-based, Homo sapiens; conditions: Homo sapiens, LB2241-RCC;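 further: cell viability assay measuring how strongly the cultured human renal carcinoma line is prevented from growing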
# Description: SANGER: Inhibition of human LB2241-RCC cell growth in a cell viability assay.
# HD-MY-Z = type: functional, cell-based, Homo sapiens; conditions: Homo sapiens, HD-MY-Z;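 further: growth inhibition of HD-MY-Z cells, read out with a cell viability assay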
# Description: SANGER: Inhibition of human HD-MY-Z cell growth in a cell viability assay.
# A4-Fuk = type: functional, cell-based; conditions: Homo sapiens;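 further: growth inhibition of A4-Fuk cells, read out by a cell viability assay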
# Description: SANGER: Inhibition of human A4-Fuk cell growth in a cell viability assay.
# COLO-668 = type: functional, cell-based, Homo sapiens; conditions: Homo sapiens, COLO-668
# Description: SANGER: Inhibition of human COLO-668 cell growth in a cell viability assay.
# PC-3 = type: functional, cell-based, Homo sapiens; conditions: Homo sapiens, PC-3;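 further: cell viability assay measuring growth inhibition of PC-3 cells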
# Description: SANGER: Inhibition of human PC-3 cell growth in a cell viability assay.
# NCI-H28 = type: functional, cell-based, Homo sapiens; conditions: Homo sapiens, NCI-H28;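 further: growth inhibition of human NCI-H28 cells, read out as cell viability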
# Description: SANGER: Inhibition of human NCI-H28 cell growth in a cell viability assay.
# ES6 = type: functional, cell-based, Homo sapiens; conditions: Homo sapiens, ES6;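 further: growth inhibition of human ES6 cells, read out with a cell viability assay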
# Description: SANGER: Inhibition of human ES6 cell growth in a cell viability assay.
# LXF-289 cell line = type: functional, cell-based, Homo sapiens; conditions: Homo sapiens, LXF-289
# Description: SANGER: Inhibition of human LXF-289 cell growth in a cell viability assay.
# ML-2 = type: functional, cell-based; conditions: Homo sapiens;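 further: growth inhibition of ML-2 cells, measured with a cell viability readout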
# Description: SANGER: Inhibition of human ML-2 cell growth in a cell viability assay.
# CAL-27 = type: functional, cell-based, Homo sapiens; conditions: Homo sapiens, CAL-27;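 further: Viability-based readout, IC50 reflecting inhibition of CAL-27 cell growth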
# Description: SANGER: Inhibition of human CAL-27 cell growth in a cell viability assay.
# NCI-H1355 = type: functional, cell-based, Homo sapiens; conditions: Homo sapiens, NCI-H1355;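 further: growth inhibition of human NCI-H1355 cells, read out by a cell viability assay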
# Description: SANGER: Inhibition of human NCI-H1355 cell growth in a cell viability assay.
# Hs-578T = type: functional, cell-based, Homo sapiens; conditions: Homo sapiens, Hs-578T
# Description: SANGER: Inhibition of human Hs-578-T cell growth in a cell viability assay.
# Calu-6 = type: functional, cell-based, Homo sapiens; conditions: Homo sapiens, Calu-6;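 further: growth of human Calu-6 cells, read out by a cell viability assay, IC50 marking inhibition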
# Description: SANGER: Inhibition of human Calu-6 cell growth in a cell viability assay.
# HMV-2 cell line = type: functional, cell-based, Homo sapiens; conditions: Homo sapiens, HMV-2;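 further: growth inhibition of HMV-II cells, read out with a cell viability assay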
# Description: SANGER: Inhibition of human HMV-II cell growth in a cell viability assay.
# RD = type: functional, cell-based, Homo sapiens; conditions: Homo sapiens, RD
# Description: SANGER: Inhibition of human RD cell growth in a cell viability assay.
# UACC-62 = type: functional, cell-based, Homo sapiens; conditions: Homo sapiens, UACC-62;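 further: growth inhibition of human UACC-62 cells, read out by a cell viability assay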
# Description: SANGER: Inhibition of human UACC-62 cell growth in a cell viability assay.
# RXF 393 = type: functional, cell-based; conditions: Homo sapiens;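 further: growth inhibition of human RXF 393 cells, read out with a cell viability assay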
# Description: SANGER: Inhibition of human RXF393 cell growth in a cell viability assay.
# KP-N-YS = type: functional, cell-based; conditions: Homo sapiens;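 further: cell viability assay measuring inhibition of cell line growth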
# Description: SANGER: Inhibition of human KP-N-YS cell growth in a cell viability assay.
# MCF7 = type: functional, cell-based, Homo sapiens; conditions: Homo sapiens, MCF7;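 further: growth inhibition of human MCF7 cells, read out with a cell viability assay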
# Description: SANGER: Inhibition of human MCF7 cell growth in a cell viability assay.
# NCI-H1155 = type: functional, cell-based; conditions: Homo sapiens;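 further: cell growth inhibition measured by a viability assay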
# Description: SANGER: Inhibition of human NCI-H1155 cell growth in a cell viability assay.
# OCUB-M = type: functional, cell-based, Homo sapiens; conditions: Homo sapiens, OCUB-M;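 further: growth inhibition of the cancer cell line, read out through a cell viability assay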
# Description: SANGER: Inhibition of human OCUB-M cell growth in a cell viability assay.
# NCI-H1650 = type: functional, cell-based, Homo sapiens; conditions: Homo sapiens, NCI-H1650;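 further: growth inhibition of human NCI-H1650 cells measured by a cell viability assay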
# Description: SANGER: Inhibition of human NCI-H1650 cell growth in a cell viability assay.
# SW780 = type: functional, cell-based, Homo sapiens; conditions: Homo sapiens, SW780;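 further: growth inhibition of the cells, read out with a cell viability assay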
# Description: SANGER: Inhibition of human SW780 cell growth in a cell viability assay.
# SW1463 = type: functional, cell-based, Homo sapiens; conditions: Homo sapiens, SW1463;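 further: growth inhibition of SW1463 cells, determined with a cell viability assay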
# Description: SANGER: Inhibition of human SW1463 cell growth in a cell viability assay.
# KARPAS-299 = type: functional, cell-based; conditions: Homo sapiens
# Description: SANGER: Inhibition of human KARPAS-299 cell growth in a cell viability assay.
# SNU-C2B = type: functional, cell-based, Homo sapiens; conditions: Homo sapiens, SNU-C2B;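 further: cell viability readout used to measure compound-driven suppression of SNU-C2B cell proliferation, IC50 marking half-maximal growth inhibition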
# Description: SANGER: Inhibition of human SNU-C2B cell growth in a cell viability assay.
# EW-11 = type: functional, cell-based, Homo sapiens; conditions: Homo sapiens, EW-11;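 further: growth inhibition of human EW-11 cells, measured with a cell viability assay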
# Description: SANGER: Inhibition of human EW-11 cell growth in a cell viability assay.
# Becker = type: functional, cell-based, Homo sapiens; conditions: Homo sapiens, Becker;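 further: growth inhibition of Becker cells, read out with a cell viability assay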
# Description: SANGER: Inhibition of human Becker cell growth in a cell viability assay.
# K562 = type: functional, cell-based; conditions: Homo sapiens
# Description: SANGER: Inhibition of human K-562 cell growth in a cell viability assay.
# HCC1937 = type: functional, cell-based, Homo sapiens; conditions: Homo sapiens, HCC1937;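 further: growth inhibition measured with a cell viability read-out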
# Description: SANGER: Inhibition of human HCC1937 cell growth in a cell viability assay.
# DEL = type: functional, cell-based; conditions: Homo sapiens;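 further: growth inhibition of the human DEL cell line, read out with a cell viability assay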
# Description: SANGER: Inhibition of human DEL cell growth in a cell viability assay.
# MG-63 = type: functional, cell-based, Homo sapiens; conditions: Homo sapiens, MG-63;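 further: growth inhibition of human MG-63 cells, read out with a cell viability assay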
# Description: SANGER: Inhibition of human MG-63 cell growth in a cell viability assay.
# TE-1 = type: functional, cell-based, Homo sapiens; conditions: Homo sapiens, TE-1;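 further: growth inhibition of the human TE-1 cell line, read out with a cell viability assay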
# Description: SANGER: Inhibition of human TE-1 cell growth in a cell viability assay.
# COLO-792 = type: functional, cell-based, Homo sapiens; conditions: Homo sapiens, COLO-792
# Description: SANGER: Inhibition of human COLO-792 cell growth in a cell viability assay.
# 697 = type: functional, cell-based; conditions: Homo sapiens
# Description: SANGER: Inhibition of human 697 cell growth in a cell viability assay.
# LOX IMVI = type: functional, cell-based; conditions: Homo sapiens
# Description: SANGER: Inhibition of human LOXIMVI cell growth in a cell viability assay.
# BHY = type: functional, cell-based, Homo sapiens; conditions: Homo sapiens, BHY;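 further: cell growth inhibition read out by a viability assay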
# Description: SANGER: Inhibition of human BHY cell growth in a cell viability assay.
# OVCAR-5 = type: functional, cell-based, Homo sapiens; conditions: Homo sapiens, OVCAR-5;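 further: growth inhibition of human OVCAR-5 cells, read out with a cell viability assay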
# Description: SANGER: Inhibition of human OVCAR-5 cell growth in a cell viability assay.
# OE19 = type: functional, cell-based, Homo sapiens; conditions: Homo sapiens, OE19;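 further: growth inhibition of OE19 cells, measured through a cell viability read-out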
# Description: SANGER: Inhibition of human OE19 cell growth in a cell viability assay.
# HEL = type: functional, cell-based, Homo sapiens; conditions: Homo sapiens, HEL;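 further: growth inhibition of HEL cells, read out with a cell viability assay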
# Description: SANGER: Inhibition of human HEL cell growth in a cell viability assay.
# A2058 = type: functional, cell-based; conditions: Homo sapiens;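 further: reduction of A2058 cell growth, read out with a viability assay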
# Description: SANGER: Inhibition of human A2058 cell growth in a cell viability assay.
# SW48 = type: functional, cell-based, Homo sapiens; conditions: Homo sapiens, SW48;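 further: growth inhibition of SW48 cells, read out with a cell viability assay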
# Description: SANGER: Inhibition of human SW48 cell growth in a cell viability assay.
# COLO-678 = type: functional, cell-based, Homo sapiens; conditions: Homo sapiens, COLO-678
# Description: SANGER: Inhibition of human COLO-678 cell growth in a cell viability assay.
# HuO-3N1 = type: functional, cell-based, Homo sapiens; conditions: Homo sapiens, HuO-3N1;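 further: cell viability readout used to measure how strongly compounds suppress proliferation of human HuO-3N1 cells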
# Description: SANGER: Inhibition of human HuO-3N1 cell growth in a cell viability assay.
# MMAC-SF = type: functional, cell-based, Homo sapiens; conditions: Homo sapiens, MMAC-SF;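 further: growth inhibition of human MMAC-SF cells, read out with a cell viability assay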
# Description: SANGER: Inhibition of human MMAC-SF cell growth in a cell viability assay.
smiles,measurement,setting,value
O=C1N=C(NCc2cccs2)S/C1=C\c1ccc2ncccc2c1,IC50,PC-14,> 5 µM
same,IC50,647-V,> 5 µM
same,IC50,LU-99A,> 5 µM
same,IC50,SCC-9,> 5 µM
same,IC50,S-117,> 5 µM
same,IC50,COR-L23,> 5 µM
same,IC50,LB2241-RCC,> 5 µM
same,IC50,HD-MY-Z,> 5 µM
same,IC50,A4-Fuk,2.06 µM
same,IC50,COLO-668,> 5 µM
same,IC50,PC-3,> 5 µM
same,IC50,NCI-H28,> 5 µM
same,IC50,ES6,> 5 µM
same,IC50,LXF-289 cell line,4.22 µM
same,IC50,ML-2,> 5 µM
same,IC50,CAL-27,> 5 µM
same,IC50,NCI-H1355,> 5 µM
same,IC50,Hs-578T,2.28 µM
same,IC50,Calu-6,> 5 µM
same,IC50,HMV-2 cell line,> 5 µM
same,IC50,RD,> 5 µM
same,IC50,UACC-62,> 5 µM
same,IC50,RXF 393,> 5 µM
same,IC50,KP-N-YS,> 5 µM
same,IC50,MCF7,> 5 µM
same,IC50,NCI-H1155,> 5 µM
same,IC50,OCUB-M,> 5 µM
same,IC50,NCI-H1650,> 5 µM
same,IC50,SW780,> 5 µM
same,IC50,SW1463,> 5 µM
same,IC50,KARPAS-299,> 5 µM
same,IC50,SNU-C2B,> 5 µM
same,IC50,EW-11,> 5 µM
same,IC50,Becker,> 5 µM
same,IC50,K562,> 5 µM
same,IC50,HCC1937,> 5 µM
same,IC50,DEL,> 5 µM
same,IC50,MG-63,> 5 µM
same,IC50,TE-1,> 5 µM
same,IC50,COLO-792,> 5 µM
same,IC50,697,> 5 µM
same,IC50,LOX IMVI,> 5 µM
same,IC50,BHY,> 5 µM
same,IC50,OVCAR-5,> 5 µM
same,IC50,OE19,> 5 µM
same,IC50,HEL,> 5 µM
same,IC50,A2058,> 5 µM
same,IC50,SW48,> 5 µM
same,IC50,COLO-678,> 5 µM
same,IC50,HuO-3N1,> 5 µM
same,IC50,MMAC-SF,> 5 µM
CCOc1nc(NC(=O)Cc2cc(OC)ccc2OC)cc(N)c1C#N,IC50,PC-14,> 10 µM
same,IC50,647-V,> 10 µM
same,IC50,LU-99A,> 10 µM
same,IC50,SCC-9,> 10 µM
same,IC50,S-117,> 10 µM
same,IC50,COR-L23,> 10 µM
same,IC50,LB2241-RCC,6.58 µM
same,IC50,HD-MY-Z,> 10 µM
same,IC50,A4-Fuk,> 10 µM
same,IC50,COLO-668,> 10 µM
same,IC50,PC-3,> 10 µM
same,IC50,NCI-H28,> 10 µM
same,IC50,ES6,> 10 µM
same,IC50,LXF-289 cell line,> 10 µM
same,IC50,ML-2,> 10 µM
same,IC50,CAL-27,> 10 µM
same,IC50,NCI-H1355,> 10 µM
same,IC50,Hs-578T,> 10 µM
same,IC50,Calu-6,> 10 µM
same,IC50,HMV-2 cell line,> 10 µM
same,IC50,RD,> 10 µM
same,IC50,UACC-62,> 10 µM
same,IC50,RXF 393,> 10 µM
same,IC50,KP-N-YS,> 10 µM
same,IC50,MCF7,> 10 µM
same,IC50,NCI-H1155,> 10 µM
same,IC50,OCUB-M,> 10 µM
same,IC50,NCI-H1650,> 10 µM
same,IC50,SW780,> 10 µM
same,IC50,SW1463,> 10 µM
same,IC50,KARPAS-299,> 10 µM
same,IC50,SNU-C2B,> 10 µM
same,IC50,EW-11,> 10 µM
same,IC50,Becker,> 10 µM
same,IC50,K562,> 10 µM
same,IC50,HCC1937,> 10 µM
same,IC50,DEL,> 10 µM
same,IC50,MG-63,> 10 µM
same,IC50,TE-1,> 10 µM
same,IC50,COLO-792,> 10 µM
same,IC50,697,> 10 µM
same,IC50,LOX IMVI,> 10 µM
same,IC50,BHY,> 10 µM
same,IC50,OVCAR-5,> 10 µM
same,IC50,OE19,> 10 µM
same,IC50,HEL,> 10 µM
same,IC50,A2058,> 10 µM
same,IC50,SW48,> 10 µM
same,IC50,COLO-678,> 10 µM
same,IC50,HuO-3N1,> 10 µM
same,IC50,MMAC-SF,> 10 µM
COc1ccc(C2=N[C@@H](c3ccc(Cl)cc3)[C@@H](c3ccc(Cl)cc3)N2C(=O)N2CCNC(=O)C2)c(OC(C)C)c1 [NUTLIN-3],IC50,PC-14,> 8 µM
same,IC50,647-V,> 8 µM
same,IC50,LU-99A,> 8 µM
same,IC50,SCC-9,> 8 µM
same,IC50,S-117,> 8 µM
same,IC50,COR-L23,> 8 µM
same,IC50,LB2241-RCC,3.66 µM
same,IC50,HD-MY-Z,> 8 µM
same,IC50,A4-Fuk,> 8 µM
same,IC50,COLO-668,> 8 µM
same,IC50,PC-3,> 8 µM
same,IC50,NCI-H28,4.63 µM
same,IC50,ES6,> 8 µM
same,IC50,LXF-289 cell line,> 8 µM
same,IC50,ML-2,2.57 µM
same,IC50,CAL-27,> 8 µM
same,IC50,NCI-H1355,> 8 µM
same,IC50,Hs-578T,> 8 µM
same,IC50,Calu-6,> 8 µM
same,IC50,HMV-2 cell line,> 8 µM
same,IC50,RD,> 8 µM
same,IC50,UACC-62,> 8 µM
same,IC50,RXF 393,> 8 µM
same,IC50,KP-N-YS,> 8 µM
same,IC50,MCF7,5.44 µM
same,IC50,NCI-H1155,> 8 µM
same,IC50,OCUB-M,> 8 µM
same,IC50,NCI-H1650,7.39 µM
same,IC50,SW780,2.51 µM
same,IC50,SW1463,> 8 µM
same,IC50,KARPAS-299,> 8 µM
same,IC50,SNU-C2B,> 8 µM
same,IC50,EW-11,> 8 µM
same,IC50,Becker,> 8 µM
same,IC50,K562,> 8 µM
same,IC50,HCC1937,> 8 µM
same,IC50,DEL,> 8 µM
same,IC50,MG-63,> 8 µM
same,IC50,TE-1,> 8 µM
same,IC50,COLO-792,> 8 µM
same,IC50,697,5.45 µM
same,IC50,LOX IMVI,3.86 µM
same,IC50,BHY,> 8 µM
same,IC50,OVCAR-5,> 8 µM
same,IC50,OE19,> 8 µM
same,IC50,HEL,> 8 µM
same,IC50,A2058,> 8 µM
same,IC50,SW48,> 8 µM
same,IC50,COLO-678,> 8 µM
same,IC50,HuO-3N1,> 8 µM
same,IC50,MMAC-SF,> 8 µM
